Holding throughout (type): cell-based
The target of assay [1] is T1, human prostanoid EP1 receptor (Homo sapiens, UniProt P34995).
T1 construct: expressed in transfected cells
T1 sequence (P34995 1-402): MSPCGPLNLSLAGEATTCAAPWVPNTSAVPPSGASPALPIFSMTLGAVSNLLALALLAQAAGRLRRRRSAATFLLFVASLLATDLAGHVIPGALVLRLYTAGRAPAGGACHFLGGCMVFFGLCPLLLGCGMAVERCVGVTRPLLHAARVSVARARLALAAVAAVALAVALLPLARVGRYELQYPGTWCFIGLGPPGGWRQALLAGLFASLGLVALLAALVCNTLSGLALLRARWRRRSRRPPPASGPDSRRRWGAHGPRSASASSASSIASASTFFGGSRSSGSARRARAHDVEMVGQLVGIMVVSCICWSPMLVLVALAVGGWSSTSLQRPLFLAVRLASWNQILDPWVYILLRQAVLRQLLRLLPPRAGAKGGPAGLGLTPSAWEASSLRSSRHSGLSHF
Briefly: FLIPR Ca2+ signaling antagonist assay, EP1 receptor stable cell line. Particulars: HEK-293 EBNA stable cell line; standard agonist PGE2; NA = inactive (no antagonism or Kb 10,000 nM); PAg, Ag not defined. The gist of the method: (§1)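 Functional antagonism measured by Ca2+ flux at 37 °C. Agonist ranges were 10^−11 to 10^−5 M, or 10^−12 to 10^−6 M for TP with U-46619; PGE2 for EP1/EP3, BW 245C for DP1. Compound spanned 0.1–30 μM except TP, 0.067–1 μM.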

In assay [2] the target is T2, human prostanoid IP receptor (Homo sapiens, UniProt P43119).
T2 construct: expressed in transfected cells
Briefly: FLIPR Ca2+ signaling antagonist assay, IP receptor stable cell line. To be noted: HEK-293 EBNA stable cell line; standard agonist Cicaprost; NA = inactive (no antagonism or Kb 10,000 nM); PAg, Ag not defined. The essentials:
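Peak Fluo-4 fluorescence (ex 470–495, em 515–575 nm) was read for 3.5 min on FLIPR after agonist injection and expressed relative to 10^−6 M standard agonist. Cells were HEK-293 EBNA transfectants. Test compound was added 4.5 min beforehand at 0.1–30 μM, or 0.067–1 μM for TP.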

For assay [3], the target named is T3, human prostanoid DP1 receptor (Homo sapiens, UniProt Q13258).
T3 construct: expressed in transfected cells
T3 sequence (Q13258 1-359): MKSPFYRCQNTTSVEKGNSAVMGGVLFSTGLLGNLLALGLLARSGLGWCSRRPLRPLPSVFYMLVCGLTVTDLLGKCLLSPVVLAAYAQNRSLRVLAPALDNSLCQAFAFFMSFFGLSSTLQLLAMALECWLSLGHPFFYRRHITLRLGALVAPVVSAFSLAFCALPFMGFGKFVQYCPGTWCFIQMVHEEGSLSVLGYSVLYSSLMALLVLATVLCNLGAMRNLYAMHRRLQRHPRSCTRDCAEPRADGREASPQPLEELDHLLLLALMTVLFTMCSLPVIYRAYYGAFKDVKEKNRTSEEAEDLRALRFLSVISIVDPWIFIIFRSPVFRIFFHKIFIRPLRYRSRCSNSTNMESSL
Briefly: FLIPR Ca2+ signaling antagonist assay, DP1 receptor stable cell line. Particulars: HEK-293 EBNA stable cell line; standard agonist BW 245C; NA = inactive (no antagonism or Kb 10,000 nM); PAg, Ag not defined. The essentials:
as §1

This is an account of results in patent US9394284B2, “Compounds act at multiple prostaglandin receptors giving a general anti-inflammatory response” (Allergan, Inc., priority 2010, dated 2016).

A word on the Kb: it is the affinity of an antagonist, worked out from how it opposes an agonist.

T2 sequence (P43119 whole entry): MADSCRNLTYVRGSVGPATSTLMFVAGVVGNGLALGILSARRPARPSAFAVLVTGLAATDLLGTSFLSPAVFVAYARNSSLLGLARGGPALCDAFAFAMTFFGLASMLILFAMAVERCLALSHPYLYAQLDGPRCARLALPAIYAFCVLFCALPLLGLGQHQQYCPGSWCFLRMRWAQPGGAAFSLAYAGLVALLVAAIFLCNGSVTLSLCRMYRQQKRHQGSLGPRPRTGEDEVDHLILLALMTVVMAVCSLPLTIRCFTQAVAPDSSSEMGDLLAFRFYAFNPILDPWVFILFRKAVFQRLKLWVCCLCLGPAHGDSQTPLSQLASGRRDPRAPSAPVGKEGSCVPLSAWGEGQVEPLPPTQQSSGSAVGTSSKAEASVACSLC

`CCC(CC)COc1ccc(Br)cc1Cn1nc(CCC(=O)O)cc1C(F)(F)F` [Example 58, 3-{1-[5-Bromo-2-(2-ethyl-butoxy)-benzyl]-5-trifluororomethyl-1H-pyrazol-3-yl}-propionic acid]: the results for the antagonist equilibrium constant (Kb) in assay [1] and in assay [3] were 370 nM and 60 nM, respectively. In assay [2], the “IP (FLIPR) Kb” value was “PAg”.
Turning to `Cc1cc(CCC(=O)NS(=O)(=O)C(F)(F)F)nn1Cc1cc(Cl)ccc1OCc1ccc(Cl)cc1Cl` [Example 27, N-(3-[1-(5-Chloro-2-(2,4-dichlorobenzyloxy)benzyl)-5-methyl-1H-pyrazol-3-yl]-propionyl)C,C,C-trifluoromethanesulfonamide], in assay [1], the “EP1 (FLIPR) Kb” value is on record as “PAg”. For the same molecule, the results for the Kb in assay [2] and in assay [3] were 400 nM and 200 nM, respectively.
Regarding `Cc1cc(CCC(=O)O)nn1Cc1cc(Cl)ccc1OCc1ccc(Cl)cc1Cl` [Example 26, 3-[1-(5-Chloro-2-(2,4-dichlorobenzyloxy)benzyl)-5-methyl-1H-pyrazol-3-yl]-propionic acid], the Kb in assay [1] is 3 nM; in assay [2], 1000 nM; in assay [3], 500 nM.
Consider `Cc1cc(CCC(=O)O)nn1Cc1cc(Cl)ccc1C#CC1CCCC1` [Example 73, 3-{1-[5-Chloro-2-cyclopentylethynyl-benzyl]-5-methyl-1H-pyrazol-3-yl}-propionic acid], for which the figures for the Kb in assay [1], in assay [2] and in assay [3] were 6 nM, 1600 nM and 700 nM, respectively.
Consider `Cc1cc(CC(C)(C)C(=O)O)nn1Cc1cc(Br)ccc1OCC1CCCC1` [Example 71, 3-{1-[5-Bromo-2-(2-cyclopentylmethoxy)-benzyl]-5-methyl-1H-pyrazol-3-yl}-2,2-dimethyl-propionic acid], for which the antagonist equilibrium constant (Kb) in assay [1] was found to be 50 nM; in assay [2] it was 3100 nM; in assay [3], 900 nM.
Regarding `CCC(CC)COc1ccc(Br)cc1Cn1nc(CCC(=O)O)cc1C(C)C` [Example 55, 3-{1-[5-Bromo-2-(2-ethyl-butoxy)-benzyl]-5-isopropyl-1H-pyrazol-3-yl}-propionic acid], the antagonist equilibrium constant (Kb) is 60 nM in assay [1], 1100 nM in assay [2] and 540 nM in assay [3].
As for `Cc1cc(CCC(=O)NS(=O)(=O)C(F)(F)F)nn1Cc1cc(Br)ccc1OCC(C)C` [Example 19, N-(3-{1-[5-Bromo-2-isobutoxybenzyl]-5-methyl-1H-pyrazol-3-yl}-propionyl)-C,C,C-trifluoro-methanesulfonamide], the values for the antagonist equilibrium constant (Kb) in assay [1], in assay [2] and in assay [3] were 14 nM, 1400 nM and 200 nM, respectively.
With `CCCc1cc(CCC(=O)O)nn1Cc1cc(Br)ccc1OCC(CC)CC` [Example 56, 3-{1-[5-Bromo-2-(2-ethyl-butoxy)-benzyl]-5-propyl-1H-pyrazol-3-yl}-propionic acid], the Kb stood at 60 nM in assay [1], 1300 nM in assay [2] and 800 nM in assay [3].
In the case of `Cc1cc(CCC(=O)NS(=O)(=O)C(F)(F)F)nn1Cc1cc(Cl)ccc1CCC1CCCC1` [Example 75], the Kb in assay [1] worked out at 60 nM; in assay [2], 1900 nM; in assay [3] it was 350 nM.
As to `CCCCC(CC)COc1ccc(Br)cc1Cn1nc(CCC(=O)O)cc1C` (stereo not drawn) [Example 6, 3-[1-(5-Bromo-2-(2-ethyl-hexyloxy)-benzyl)-5-methyl-1H-pyrazol-3-yl]-propionic acid], the figures for the Kb in assay [1], in assay [2] and in assay [3] were 380 nM, 1800 nM and 180 nM, respectively.
For `CCCC(C)COc1ccc(Br)cc1Cn1nc(CCC(=O)O)cc1C` (stereo not drawn) [Example 8, 3-[1-(5-Bromo-2-(2-methyl-pentyloxy)-benzyl)-5-methyl-1H-pyrazol-3-yl]-propionic acid], the results for the Kb in assay [1], in assay [2] and in assay [3] were 40 nM, 1700 nM and 110 nM, respectively.
For `Cc1cc(CCC(=O)O)nn1Cc1cc(Br)ccc1OCC1(C(F)(F)F)CCC1` [Example 13, 3-[1-(5-Bromo-2-(1-trifluoromethylcyclobutylmethoxy)-benzyl)-5-methyl-1H-pyrazol-3-yl]-propionic acid], the antagonist dissociation constant (Kb) in assay [1] is 30 nM; in assay [2] it was 8800 nM; in assay [3], 900 nM.
As to `CCC(CC)COc1ccc(Br)cc1Cn1nc(CCC(=O)NS(=O)(=O)C(F)(F)F)cc1C` [Example 17, N-(3-{1-[5-Bromo-2-(2-ethyl-butoxy)-benzyl]-5-methyl-1H-pyrazol-3-yl}-propionyl)-C,C,C-trifluoro-methanesulfonamide], the results for the antagonist dissociation constant (Kb) in assay [1], in assay [2] and in assay [3] were 15 nM, 2700 nM and 200 nM, respectively.
On to `Cc1cc(CCC(=O)NS(=O)(=O)CC(F)(F)F)nn1Cc1cc(Cl)ccc1OCc1ccc(Cl)cc1` [Example 25, 2,2,2-trifluoroethanesulfonic acid-(3-[1-(5-Chloro-2-(4-chlorobenzyloxy)benzyl)-5-methyl-1H-pyrazol-3-yl]-propionyl)amide], for which the Kb in assay [1] worked out at 6 nM; in assay [2] it was 7900 nM; in assay [3], 1330 nM.
As to `CCC(CC)COc1ccc(Br)cc1Cn1nc(CCC(=O)O)cc1C(C)(C)C` [Example 57, 3-{1-[5-Bromo-2-(2-ethyl-butoxy)-benzyl]-5-tert-butyl-1H-pyrazol-3-yl}-propionic acid], the antagonist equilibrium constant (Kb) in assay [1] is 150 nM; in assay [2], 800 nM; in assay [3] it was 1600 nM.
